We go through six molecules from patent US20030036103A1, “Methods and compositions for diagnosis and treatment of vascular conditions” (priority 2001, published 2003).

What all share (format): cell-based
Assay [1] has as its system human microvascular endothelial cells (HMVEC). The assay can be described thus: Induction of endothelial heparanase protein by cytokines (immunoblot). The following applies: TNFα. As for the experimental part:
Experiments were done on human microvascular endothelial cells (HMVEC) grown in 48-well plates (˜90% confluency). To induce heparanase activity, culture media was replaced with 200 μl Dulbecco's modified Eagle's medium (DMEM) complemented with 1% bovine serum albumin (BSA) and 100 ng biotinylated HS with or without stimulants (5 ng/ml TGFα, 1 ng/ml IL 1β, or 200 ng/ml VEGF). Cells were incubated in a cell culture incubator for 16-18 hours and the entire 200 μmedia was added to a streptavidin-coated plate and followed by standard color development assay as described in Example 2. The secreted proteins were analyzed by SDS-PAGE and heparanase protein was detected by immunoblotting using polyclonal anti-human heparanase antibody.
Human microvascular endothelial cells (HMVEC) were grown in 48-well plates (˜90% confluency). To induce heparanase activity, culture media was replaced with 200 μl Dulbecco's modified Eagle's medium (DMEM) complemented with 1% bovine serum albumin (BSA) and 100 ng biotinylated HS with 0, 0.02, 1.5 and 5 ng/ml of TNFα. The secreted heparanase was detected by immunoblotting the culture media with anti-human heparanase antibody.
For orientation: Immunoblotting shows a protein as a band on a membrane.

The subject of assay [2] is endothelial cells. The assay can be described thus: Heparanase expression in endothelial cells induced by lysolecithin.
The test system of assay [3] is human microvascular endothelial cells (HMVEC). The assay can be described thus: TNFα-induced heparanase secretion by endothelial cells with signaling inhibitors (immunoblot). The following applies: HMVEC incubated with TNFα and inhibitor for 16 h; wortmannin 0.1 and 0.5 μM, Ly294002 10 and 50 μM, SN50 10 μM, FPT inhibitor III 100 μM, PD98059 5 μM, SB203580 650 nM, ZM336372 200 nM, caspase inhibitor III 10 μM; FIG. 5. As for the experimental part:
Human microvascular endothelial cells (HMVEC) were grown in 48-well plates (˜90% confluency). To induce heparanase activity, culture media was replaced with 200 μl Dulbecco's modified Eagle's medium (DMEM) complemented with 1% bovine serum albumin (BSA), 100 ng biotinylated HS and TNFα with or without (FIG. 5A) P13 kinase inhibitors (wortmannin, 0.1 μM and 0.5 μM, or Ly294002, 10 μM and 50 μM), (FIG. 5B) NFκB inhibitor (SN50, 10 μM), several MAP kinase inhibitors (FIG. 5C)—either 100 μM FPT inhibitor III (FPT, inhibits Ras processing in cells), 5 μM MAP kinase (MEK), inhibitor PD98059 (PD), 650 nM p38 kinase inhibitor SB203580 (SB), 200 nM c-Raf inhibitor ZM336372 (ZM); or an inhibitor cocktail (Cl) that contains all of the four inhibitors; or broad-spectrum caspase inhibitor III (Casp-I, 10 μM) (FIG. 5D). The cells were incubated with TNFα and the inhibitors for 16 h. The culture media was collected and the secreted proteins were analyzed by SDS-PAGE and heparanase protein was detected by immunoblotting using polyclonal anti-human heparanase antibody.

As for TNFα, the “induction of heparanase in endothelial cells” value in assay [1] is on record as “induces heparanase”. Consider lysolecithin, for which the “induction of heparanase expression in endothelial cells” value in assay [2] is recorded as “induces heparanase expression”. Turning to `COC(=O)CC(NC(=O)OC(C)(C)C)C(=O)CF` (stereo not drawn) [caspase inhibitor III], the “inhibition of TNFα-induced heparanase secretion” value in assay [3] is “blocked heparanase secretion”. For `COc1cccc(-c2cc(=O)c3ccccc3o2)c1N` [PD98059], the “inhibition of TNFα-induced heparanase secretion” value in assay [3] is listed as “do not inhibit”. The same measure, in the same setting: with `C[S+]([O-])c1ccc(-c2nc(-c3ccncc3)c(-c3ccc(F)cc3)[nH]2)cc1` (stereo not drawn) [SB203580] the entry was “do not inhibit”; with `Cc1ccc(NC(=O)c2cccc(N(C)C)c2)cc1NC(=O)c1ccc(O)cc1` [ZM336372], “do not inhibit”.
